Results on 38 compounds are retold here after patent US11339160B2, “Imidazole and triazole containing bicyclic compounds as JAK inhibitors” (THERAVANCE BIOPHARMA R&D IP, LLC, priority 2019, dated 2022).

The assay deals with JAK3 (Homo sapiens (Human), UniProt P52333). Kind of assay: Biochemical JAK3 kinase assay (LanthaScreen). The note with it: selectivity, difference of pKi values. The procedure: Assay 1: Biochemical JAK and Tyk2 Kinase Assays
JAK3, sequence (P52333 whole entry): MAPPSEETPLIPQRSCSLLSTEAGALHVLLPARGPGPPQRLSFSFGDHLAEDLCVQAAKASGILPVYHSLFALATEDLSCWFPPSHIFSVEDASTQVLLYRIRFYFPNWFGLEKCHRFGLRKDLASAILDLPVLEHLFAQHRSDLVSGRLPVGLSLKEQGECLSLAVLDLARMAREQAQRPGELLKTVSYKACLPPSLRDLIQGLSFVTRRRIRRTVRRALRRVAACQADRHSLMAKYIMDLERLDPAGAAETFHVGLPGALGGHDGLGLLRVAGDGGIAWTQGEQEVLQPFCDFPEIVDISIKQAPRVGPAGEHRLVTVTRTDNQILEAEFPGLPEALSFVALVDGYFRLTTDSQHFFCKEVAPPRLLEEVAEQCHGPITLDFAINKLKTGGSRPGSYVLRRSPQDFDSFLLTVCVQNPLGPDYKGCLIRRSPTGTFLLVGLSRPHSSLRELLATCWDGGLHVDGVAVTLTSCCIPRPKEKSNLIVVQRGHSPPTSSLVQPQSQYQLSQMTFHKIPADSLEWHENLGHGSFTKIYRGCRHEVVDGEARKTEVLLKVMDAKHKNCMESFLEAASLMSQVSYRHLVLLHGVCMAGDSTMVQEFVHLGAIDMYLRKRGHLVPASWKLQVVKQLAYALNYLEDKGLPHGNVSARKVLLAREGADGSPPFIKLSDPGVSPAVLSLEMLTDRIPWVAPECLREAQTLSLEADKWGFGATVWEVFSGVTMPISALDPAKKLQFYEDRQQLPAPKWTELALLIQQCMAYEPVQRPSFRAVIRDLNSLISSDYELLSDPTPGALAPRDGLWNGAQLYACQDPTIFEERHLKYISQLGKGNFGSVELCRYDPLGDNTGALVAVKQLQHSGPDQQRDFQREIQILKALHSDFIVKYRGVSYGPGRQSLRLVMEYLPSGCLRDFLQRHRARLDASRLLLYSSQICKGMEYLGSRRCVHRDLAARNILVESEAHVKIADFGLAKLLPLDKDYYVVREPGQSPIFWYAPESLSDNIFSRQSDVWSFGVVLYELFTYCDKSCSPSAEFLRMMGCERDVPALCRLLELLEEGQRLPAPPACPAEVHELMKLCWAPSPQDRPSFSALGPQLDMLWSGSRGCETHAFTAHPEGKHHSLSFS
A panel of four LanthaScreen JAK biochemical assays (JAK1, 2, 3 and Tyk2) were carried in a common kinase reaction buffer (50 mM HEPES, pH 7.5, 0.01% Brij-35, 10 mM MgCl2, and 1 mM EGTA). Recombinant GST-tagged JAK enzymes and a GFP-tagged STAT1 peptide substrate were obtained from Life Technologies.
Serially or discretely diluted compounds were pre-incubated with each of the four JAK enzymes and the substrate in white 384-well microplates (Corning) at ambient temperature for 1 h. ATP was subsequently added to initiate the kinase reactions in 10 μL total volume, with 1% DMSO. […] Kinase reactions were allowed to proceed for 1 hour at ambient temperature before a 10 μL preparation of EDTA (10 mM final concentration) and Tb-anti-pSTAT1 (pTyr701) antibody (Life Technologies, 2 nM final concentration) in TR-FRET dilution buffer (Life Technologies) was added. The plates were allowed to incubate at ambient temperature for 1 h before being read on the EnVision reader (Perkin Elmer). Emission ratio signals (520 nm/495 nm) were recorded and utilized to calculate the percent inhibition values based on DMSO and background controls.
For dose-response analysis, percent inhibition data were plotted vs. compound concentrations, and IC50 values were determined from a 4-parameter robust fit model with the Prism software (GraphPad Software). Results were expressed as pIC50 (negative logarithm of IC50) and subsequently converted to pKi (negative logarithm of dissociation constant, Ki) using the Cheng-Prusoff equation.
In general terms: TR-FRET usually uses a lanthanide donor and a delayed reading to cut background.
Regarding `CCc1cc(O)c(F)cc1-c1cc(O[C@H]2CCCN(C(=O)/C=C/CN(C)C)C2)c2cncn2c1` [Example 18], the “JAK3 (pKi)-JAK1 (pKi)” value was “B (a value of 2.3 to 3)”.
For `C=CC(=O)N1CC(COc2cc(-c3ccc(O)cc3C(F)(F)F)cn3cncc23)C1` [Example 42] the value was “A (a value of 3 or above)”; for `C=CC(=O)N1CCC(Oc2cc(-c3cc(F)c(O)cc3CC)cn3cncc23)CC1` [Example 47], “B (a value of 2.3 to 3)”; for `C=CC(=O)N1CCC(Nc2cc(-c3ccc(O)cc3)cn3cncc23)CC1` [Example 4, 1-(4-((6-(4-hydroxyphenyl)imidazo[1,5-a]pyridin-8-yl)amino)piperidin-1-yl)prop-2-en-1-one], “B (a value of 2.3 to 3)”.
As for `C=CC(=O)N1CC(CNc2cc(-c3ccc(O)cc3)cn3cncc23)C1` [Example 52], the entry is “B (a value of 2.3 to 3)”; as for `C=CC(=O)N1CC[C@@H](Oc2cc(-c3ccc(O)cc3)cn3cncc23)C[C@@H]1C` [Example 39], “A (a value of 3 or above)”.
As for `C=CC(=O)N1[C@@H]2CC[C@H]1C[C@H](Oc1cc(-c3cc(F)c(O)cc3CC)cn3cncc13)C2` [Example 48], the entry is “A (a value of 3 or above)”; as for `C=CC(=O)N1CCC(Oc2cc(-c3ccc(O)cc3)cn3cncc23)C(F)(F)C1` (centres unmarked) [Example 14, 1-(3,3-difluoro-4-((6-(4-hydroxyphenyl)imidazo[1,5-a]pyridin-8-yl)oxy)piperidin-1-yl)prop-2-en-1-one], “A (a value of 3 or above)”; as for `C=CC(=O)N1CC(COc2cc(-c3cc(F)c(O)c(F)c3)cn3cncc23)C1` [Example 32], “A (a value of 3 or above)”.
As to `C=CC(=O)N1[C@H](C)C[C@H](Oc2cc(-c3ccc(O)cc3)cn3cncc23)C[C@@H]1C` [Example 40], the “JAK3 (pKi)-JAK1 (pKi)” value is recorded as “B (a value of 2.3 to 3)”.
As for `C=CC(=O)N1CCC[C@H](Nc2cc(-c3ccc(O)cc3)cn3cncc23)C1` [Example 51], the entry is “B (a value of 2.3 to 3)”.
As to `CCc1cc(O)ccc1-c1cc(OCC2CN(C(=O)/C=C/CN(C)C)C2)c2cncn2c1` [Example 25], the “JAK3 (pKi)-JAK1 (pKi)” value was “A (a value of 3 or above)”.
Turning to `C=CC(=O)N1CC[C@H](Oc2cc(-c3ccc(O)cc3)cn3cncc23)C1` [Example 1, (S)-1-(3-((6-(4-hydroxyphenyl)imidazo[1,5-a]pyridin-8-yl)oxy)pyrrolidin-1-yl)prop-2-en-1-one], the “JAK3 (pKi)-JAK1 (pKi)” value was “A (a value of 3 or above)”.
As for `CN(C)C/C=C/C(=O)N1CC(COc2cc(-c3ccc(O)c(F)c3)cn3cncc23)C1` [Example 22], the entry is “A (a value of 3 or above)”; as for `C=CC(=O)N1CC(COc2cc(-c3cc(C)c(O)cc3C)cn3cncc23)C1` [Example 43], “A (a value of 3 or above)”; as for `CN(C)C/C=C/C(=O)N1CC(COc2cc(-c3ccc(O)cc3)cn3cncc23)C1` [Example 19], “A (a value of 3 or above)”.
For `C=CC(=O)N1CC[C@@H](Oc2cc(-c3ccc(O)cc3)cn3cncc23)[C@@H](C)C1` [Example 41] the value was “A (a value of 3 or above)”; for `CN(C)C/C=C/C(=O)N1CC(COc2cc(-c3ccc(O)c(Cl)c3)cn3cncc23)C1` [Example 23], “A (a value of 3 or above)”; for `C=CC(=O)N1CC(COc2cc(-c3ccc(O)cc3OC)cn3cncc23)C1` [Example 45], “A (a value of 3 or above)”.
In the case of `C=CC(=O)N1CC[C@H](COc2cc(-c3ccc(O)cc3)cn3cncc23)C1` [Example 26], the “JAK3 (pKi)-JAK1 (pKi)” value is reported as “A (a value of 3 or above)”.
As for `C=CC(=O)N1CC(COc2cc(-c3ccc(O)cc3C)cn3cncc23)C1` [Example 44], the entry is “A (a value of 3 or above)”; as for `C=CC(=O)N1CCC(COc2cc(-c3ccc(O)cc3)cn3cncc23)CC1` [Example 2, 1-(4-(((6-(4-hydroxyphenyl)imidazo[1,5-a]pyridin-8-yl)oxy)methyl)piperidin-1-yl)prop-2-en-1-one], “A (a value of 3 or above)”; as for `C=CC(=O)N1CC(CSc2cc(-c3ccc(O)cc3)cn3cncc23)C1` [Example 29], “A (a value of 3 or above)”.
For `C=CC(=O)N1CC(COc2cc(-c3cc(Cl)c(O)c(Cl)c3)cn3cncc23)C1` [Example 33] the value was “A (a value of 3 or above)”; for `C=CC(=O)N1CC[C@H](Oc2cc(-c3ccc(O)cc3)cn3cncc23)C[C@@H]1C` [Example 38], “A (a value of 3 or above)”; for `C=CC(=O)N1CC(COc2cc(-c3ccc(O)cc3)cn3cnnc23)C1` [Example 5, 1-(3-(((6-(4-hydroxyphenyl)-[1,2,4]triazolo[4,3-a]pyridin-8-yl)oxy)methyl)azetidin-1-yl)prop-2-en-1-one], “A (a value of 3 or above)”.
For `C=CC(=O)N1CC2(CCC2Oc2cc(-c3ccc(O)cc3)cn3cncc23)C1` (centres unmarked) [Example 3, 1-(5-((6-(4-hydroxyphenyl)imidazo[1,5-a]pyridin-8-yl)oxy)-2-azaspiro[3.3]heptan-2-yl)prop-2-en-1-one] the value was “A (a value of 3 or above)”; for `C=CC(=O)N1CC(COc2nc(-c3ccc(O)cc3)cn3cncc23)C1` [Example 6, 1-(3-(((6-(4-hydroxyphenyl)imidazo[1,5-a]pyrazin-8-yl)oxy)methyl)azetidin-1-yl)prop-2-en-1-one], “A (a value of 3 or above)”; for `C=CC(=O)N1CCC(Oc2cc(-c3ccc(O)cc3)cn3cncc23)CC1` [Example 30], “A (a value of 3 or above)”.
As to `C=CC(=O)N1CC2(CC(Oc3cc(-c4ccc(O)cc4)cn4cncc34)C2)C1` [Example 37], the “JAK3 (pKi)-JAK1 (pKi)” value was “A (a value of 3 or above)”.
For `C=CC(=O)N1[C@@H]2CC[C@H]1C[C@@H](Oc1cc(-c3ccc(O)cc3)cn3cncc13)C2` [Example 36] the value was “A (a value of 3 or above)”; for `C=CC(=O)N1CC(COc2cc(-c3cc(C)c(O)c(C)c3)cn3cncc23)C1` [Example 35], “A (a value of 3 or above)”; for `C=CC(=O)N1CC(COc2cc(-c3ccc(O)cc3CC)cn3cncc23)C1` [Example 21], “A (a value of 3 or above)”.
For `C=CC(=O)N1CC2(CCC2Oc2cc(-c3cc(F)c(O)cc3CC)cn3cncc23)C1` (centres unmarked) [Example 46] the value was “B (a value of 2.3 to 3)”; for `C=CC(=O)N1[C@@H]2CC[C@H]1C[C@H](Nc1cc(-c3ccc(O)cc3)cn3cncc13)C2` [Example 50], “B (a value of 2.3 to 3)”.
For `C=CC(=O)N1CCC[C@H](Oc2cc(-c3cc(F)c(O)cc3CC)cn3cncc23)C1` [Example 16] the value was “B (a value of 2.3 to 3)”; for `C=CC(=O)N1CCC[C@H](Oc2cc(-c3ccc(O)cc3)cn3cncc23)C1` [Example 27], “A (a value of 3 or above)”.
Consider `C=CC(=O)N1CCC(Oc2cc(-c3cc(F)c(O)cc3CC)cn3cncc23)C(F)(F)C1` (centres unmarked) [Example 49], for which the “JAK3 (pKi)-JAK1 (pKi)” value is listed as “C (a value of 1.8 to 2.3)”.
